Consider three compounds from paper PMC9574855 (Journal of Medicinal Chemistry, 2022).

Read-outs that look alike come from different tables or passages of the source.

One data set concerns bald GFP lentivirus. The format is cell-based. As to conditions: Calu-3 cells, 1 μM.
The next data set deals with A549-ACE2 cells. As to conditions: LDH assay.
The test system of data set [1] is lentivirus pseudotyped with the SARS-CoV-2 spike glycoprotein. Type of data set: cell-based. As to conditions: Calu-3 cells, 1 μM.
In the next data set the test system is DBT cells. In words: LDH cell viability assay in DBT cells. Type of data set: cell-based, mouse. The note with it: up to 10 μM.
For the next data set, the system named is MHV-nLuc virus. Description: microbe, parasite or virus in culture. Type of data set: cell-based, mouse hepatitis virus (MHV).
Data set [2] deals with 403 WT human kinases. Description: DiscoverX scanMAX kinome-wide selectivity at 1 μM. Type of data set: binding.
In data set [3] the test system is His6-SARS-CoV-2 spike protein uptake by HEK293T-ACE2 cells. In words: Spike uptake assay in HEK293T-ACE2 cells. Type of data set: cell-based, human. The note with it: 1 μM.
In a further data set the test system is SARS-CoV-2-nLuc. In words: microbe, parasite or virus in culture. The format is cell-based. As to conditions: A549-ACE2 cells.
Data set [4] concerns His6-SARS-CoV-2 spike protein uptake by Calu-3 cells. Description: Spike uptake assay in Calu-3 cells. Type of data set: cell-based. The note with it: 1 μM.
The subject of a further data set is SH-SY5Y cells. In words: Lysosomal staining. As to conditions: 5 μM, 24 h. The format is cell-based, human.
Data set [5] has as its system His6-SARS-CoV-2 spike protein uptake by Caco-2 cells. In words: Spike uptake assay in Caco-2 cells. The note with it: 1 μM. The format is cell-based.
Data set [6] deals with 403 WT human kinases. The note with it: 1 μM, published data, apilimod; cited from earlier work.
For data set [7], the system named is 24 human lipid kinases and 83 human protein kinases. The note with it: 300 nM, KiNativ; cited from earlier work.
Another data set has as its system LOK. As to conditions: 300 nM, KiNativ, Jurkat cell lysate; cited from earlier work.
The subject of another data set is ITPK1. As to conditions: 300 nM, KiNativ, Jurkat cell lysate; cited from earlier work.

For the compound `Nc1ncc2c(n1)-c1c([nH]c3ccc(C4CC4)cc13)CCCC2` [compound 30, 12-Cyclopropyl-6,7,8,9-tetrahydro-5H-pyrimido[4′,5′:3,4]cycloocta[1,2-b]indol-2-amine], in the data set on bald GFP lentivirus, the “entry of bald lentivirus” value is recorded as “entry of bald lentivirus was not impacted”. The “toxicity to A549-ACE2 cells” value in the data set with A549-ACE2 cells is “did not inhibit SARS-CoV-2 replication or elicit any toxicity”. Moreover, the “entry of lentivirus pseudotyped with SARS-CoV-2 spike glycoprotein” value in [1] is recorded as “did not inhibit pseudoviral entry”. In addition, the “effect on cell viability in DBT cells” value with DBT cells was “nontoxic up to 10 μM”. Besides, the “inhibition of viral replication (MHV-nLuc), in words” value in the data set on MHV-nLuc virus (DBT cells) is given as “failed to inhibit viral replication”. In addition, the IC50 with MHV-nLuc virus (Murine coronavirus, read-out: MHV replication pIC50 (converted)) was 10 µM. Besides, the “# scanMAX kinases with PoC < 10” value with 403 WT human kinases [2] is on record as 1. The “His6-SARS-CoV-2 spike protein uptake” value in [3] is “no effect on spike protein uptake”. For the same compound, in the data set on SARS-CoV-2-nLuc, the “inhibition of SARS-CoV-2 replication, in words” value was “did not inhibit SARS-CoV-2 replication”.
With `Cc1cccc(/C=N/Nc2cc(N3CCOCC3)nc(OCCc3ccccn3)n2)c1` [Apilimod, 4-(6-(2-(3-Methylbenzylidene)hydrazinyl)-2-(2-(pyridin-2-yl)ethoxy)pyrimidin-4-yl)morpholine, reference compound], the “entry of bald lentivirus” value in the data set on bald GFP lentivirus is listed as “entry of bald lentivirus was not impacted”. Besides, the “entry of lentivirus pseudotyped with SARS-CoV-2 spike glycoprotein” value in data set [1] is reported as “inhibition of pseudoviral entry”. For the same compound, the “His6-SARS-CoV-2 spike protein uptake” value in data set [4] is listed as “efficiently reduced spike protein uptake”; in [3] it was “significantly reduced spike protein uptake”; in data set [5] it was “efficiently reduced spike protein uptake”. Besides, in the data set on SH-SY5Y cells, the “vacuoles in LysoTracker-stained cells” value was “vacuoles are present”. The “# scanMAX kinases with PoC < 10” value with 403 WT human kinases [6] is listed as 1.
As for `Cc1cccc(/C=N/Nc2cc(N3CCOCC3)n3nc(-c4ccncc4)cc3n2)c1` [APY0201, 2-[7-(4-morpholinyl)-2-(4-pyridinyl)pyrazolo[1,5-a]pyrimidin-5-yl]hydrazone, 3-methyl-benzaldehyde], the Gini coefficient in data set [7] is listed as 0.753. Besides, in the data set with LOK, the “inhibition of LOK” value is recorded as over 50%. For the same compound, in the data set with ITPK1, the “inhibition of ITPK1” value is over 50%.
